Counter-ions that a name gives are not always drawn.
How the values were obtained:
NS5B 1a = target: T1, NS5B 1a (Hepatitis C virus genotype 1a, UniProt P27958); assay: Assay of enzyme (HCV polymerase) inhibitory activity, NS5B 1a; type: biochemical; conditions: HCV polymerase NS5B 1a; [3H]UTP incorporation, 25° C., 90 min
T1 construct: NS5B 1a

NS5B 1b = target: T2, NS5B 1b (Hepatitis C virus genotype 1b, UniProt P26663); assay: Assay of enzyme (HCV polymerase) inhibitory activity, NS5B 1b; type: biochemical
T2 construct: a region encoding NS5B (J Virol 1991 March, 65(3), 1105-13, 544 amino acids after deletion of 47 amino acids on the C-terminal); 6 His (C); made in house; host or cells: Escherichia coli
Description: The evaluation of the HCV polymerase inhibitory activity of the compound of the present invention is explained in the following. This polymerase is an enzyme coded for by the non-structural protein region called NS5B on the genome RNA of HCV (EMBO J., 15:12-22, 1996).
i) Preparation of enzyme (HCV polymerase)
Using, as a template, a cDNA clone corresponding to the full length genome RNA of HCV BK strain obtained from the blood of a patient with hepatitis C, a region encoding NS5B (J Virol 1991 March, 65(3), 1105-13, 544 amino acids after deletion of 47 amino acids on the C-terminal) was amplified by PCR. The objective gene was prepared by adding a 6 His tag {base pair encoding 6 continuous histidine (His)} to the 3′ end thereof and transformed to Escherichia coli. The Escherichia coli capable of producing the objective protein was cultured. The obtained cells were suspended in a buffer solution and crushed in a microfluidizer. The supernatant was obtained by centrifugation and applied to various column chromatographys {mono-S, Sephacryl S-200 (Pharmacia)}, inclusive of metal chelate chromatography, to give a standard enzyme product.
ii) Synthesis of Substrate RNA
Using a synthetic primer designed based on the sequence of HCV genomic 3′ untranslated region, a DNA fragment (148 bp) containing polyU and 3′X sequence was entirely synthesized and cloned into plasmid pBluescript SK II(+) (Stratagene). The cDNA encoding full length NS5B, which was prepared in i) above, was digested with restriction enzyme KpnI to give a cDNA fragment containing the nucleotide sequence of from the restriction enzyme cleavage site to the termination codon. This cDNA fragment was inserted into the upstream of 3′ untranslated region of the DNA in pBluescript SK II(+) and ligated. The about 450 bp inserted DNA sequence was used as a template in the preparation of substrate RNA. This plasmid was cleaved immediately after the 3′X sequence, linearized and purified by phenol-chloroform treatment and ethanol precipitation to give DNA.
RNA was synthesized (37° C., 3 hr) by run-off method using this purified DNA as a template, a promoter of pBluescript SK II(+), MEGAscript RNA synthesis kit (Ambion) and T7 RNA polymerase. DNase I was added and the mixture was incubated for 1 hr. The template DNA was removed by decomposition to give a crude RNA product. This crude product was treated with phenol-chloroform and purified by ethanol precipitation to give the objective substrate RNA.
This RNA was applied to formaldehyde denaturation agarose gel electrophoresis to confirm the quality thereof and preserved at −80° C. iii) Assay of enzyme (HCV polymerase) inhibitory activity A test substance (compound of the present invention) and a reaction mixture (30 μl) having the following composition were reacted at 25° C. for 90 min.
10% Trichloroacetic acid at 4° C. and 1% sodium pyrophosphate solution (150 μl) were added to this reaction mixture to stop the reaction. The reaction mixture was left standing in ice for 15 min to insolubilize RNA. This RNA was trapped on a glass filter (Whatman GF/C and the like) upon filtration by suction. This filter was washed with a solution containing 1% trichloroacetic acid and 0.1% sodium pyrophosphate, washed with 90% ethanol and dried. A liquid scintillation cocktail (Packard) was added and the radioactivity of RNA synthesized by the enzyme reaction was measured on a liquid scintillation counter.
The HCV polymerase inhibitory activity (IC50) of the compound of the present invention was calculated from the values of radioactivity of the enzyme reaction with and without the 20 test substance. […]

T1 sequence (P27958 2421-3011): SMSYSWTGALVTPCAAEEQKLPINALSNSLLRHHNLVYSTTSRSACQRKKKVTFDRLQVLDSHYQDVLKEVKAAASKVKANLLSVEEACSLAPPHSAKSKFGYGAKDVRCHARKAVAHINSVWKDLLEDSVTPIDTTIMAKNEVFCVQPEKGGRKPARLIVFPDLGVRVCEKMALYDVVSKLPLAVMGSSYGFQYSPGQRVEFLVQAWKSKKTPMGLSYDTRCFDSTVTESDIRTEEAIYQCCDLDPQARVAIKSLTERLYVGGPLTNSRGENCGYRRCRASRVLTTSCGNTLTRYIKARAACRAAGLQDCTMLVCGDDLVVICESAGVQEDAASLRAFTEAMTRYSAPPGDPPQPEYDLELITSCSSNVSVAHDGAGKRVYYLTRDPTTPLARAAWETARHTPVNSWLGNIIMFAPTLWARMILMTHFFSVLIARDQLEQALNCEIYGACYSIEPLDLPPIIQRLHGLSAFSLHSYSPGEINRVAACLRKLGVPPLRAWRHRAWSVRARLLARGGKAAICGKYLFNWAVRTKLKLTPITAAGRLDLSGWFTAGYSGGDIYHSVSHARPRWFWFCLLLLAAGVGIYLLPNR
T2 sequence (P26663 2420-2963): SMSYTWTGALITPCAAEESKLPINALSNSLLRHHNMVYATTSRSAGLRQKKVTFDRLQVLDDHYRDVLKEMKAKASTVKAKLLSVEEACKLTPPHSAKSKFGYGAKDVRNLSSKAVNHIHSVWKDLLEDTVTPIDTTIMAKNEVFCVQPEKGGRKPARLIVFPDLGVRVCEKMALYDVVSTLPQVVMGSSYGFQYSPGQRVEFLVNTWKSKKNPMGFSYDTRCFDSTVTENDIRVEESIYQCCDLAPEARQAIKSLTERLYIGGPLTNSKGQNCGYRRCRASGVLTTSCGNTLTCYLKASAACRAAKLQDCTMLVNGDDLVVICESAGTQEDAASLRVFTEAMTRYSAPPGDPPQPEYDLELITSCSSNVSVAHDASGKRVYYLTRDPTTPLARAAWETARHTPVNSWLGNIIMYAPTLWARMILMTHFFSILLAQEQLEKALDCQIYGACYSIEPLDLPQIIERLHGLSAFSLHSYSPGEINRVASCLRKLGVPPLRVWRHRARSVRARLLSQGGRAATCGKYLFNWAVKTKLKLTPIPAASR

## CS(=O)(=O)N1CCN(c2ccc(N3CCCC3=O)cc2COc2ccc3c(c2)OCCn2c-3c(C3CCCCC3)c3sc(C(=O)O)cc32)CC1 [Example 18, 11-cyclohexyl-8-[2-(4-methanesulfonylpiperazin-1-yl)-5-(2-oxopyrrolidin-1-yl)benzyloxy]-4,5-dihydro-6-oxa-1-thia-3b-azabenzo[e]cyclopenta[a]azulene-2-carboxylic acid]
NS5B 1a
  IC50: < 10 nM
NS5B 1b
  IC50: < 10 nM

## Cc1ccc2c(c1)N(CCN1CCN(C(=O)OC(C)(C)C)CC1)CCn1c-2c(C2CCCCC2)c2sc(C(=O)O)cc21 [Example 33, 6-[2-(4-tert-butoxycarbonylpiperazin-1-yl)ethyl]-11-cyclohexyl-8-methyl-5,6-dihydro-4H-1-thia-3b,6-diazabenzo[e]cyclopenta[a]azulene-2-carboxylic acid hydrochloride]
NS5B 1a
  IC50: 10 to 100 nM
NS5B 1b
  IC50: 10 to 100 nM

## CC(C)(C)OC(=O)N1CCN(CCN2CCn3c(c(C4CCCCC4)c4sc(C(=O)O)cc43)-c3ccccc32)CC1 [Example 11, 6-[2-(4-tert-butoxycarbonylpiperazin-1-yl)ethyl]-11-cyclohexyl-5,6-dihydro-4H-1-thia-3b,6-diazabenzo[e]cyclopenta[a]azulene-2-carboxylic acid hydrochloride]
NS5B 1a
  IC50: 10 to 100 nM
NS5B 1b
  IC50: 10 to 100 nM

## COc1ccc2c(c1)OCCn1c-2c(C2CCCCC2)c2sc(C(=O)NC3(C(=O)Nc4ccc(/C=C/C(=O)O)cc4)CCC3)cc21 [Example 37, (E)-3-[4-({1-[(11-cyclohexyl-8-methoxy-4,5-dihydro-6-oxa-1-thia-3b-azabenzo[e]cyclopenta[a]azulene-2-carbonyl)amino]cyclobutanecarbonyl}amino)phenyl]acrylic acid]
NS5B 1a
  IC50: 10 to 100 nM
NS5B 1b
  IC50: 10 to 100 nM

## O=C(O)c1cc2c(s1)c(C1CCCCC1)c1n2CCN(CCN2CCCOCC2)c2ccccc2-1 [Example 24, 11-cyclohexyl-6-[2-(1,4-oxazepan-4-yl)ethyl]-5,6-dihydro-4H-1-thia-3b,6-diazabenzo[e]cyclopenta[a]azulene-2-carboxylic acid dihydrochloride]
NS5B 1a
  IC50: 10 to 100 nM
NS5B 1b
  IC50: 10 to 100 nM

## COCC[C@@H]1CCCN(CCN2CCn3c(c(C4CCCCC4)c4sc(C(=O)O)cc43)-c3ccc(Cl)cc32)C1 [Example 31, (S)-8-chloro-11-cyclohexyl-6-{2-[3-(2-methoxyethyl)piperidin-1-yl]ethyl}-5,6-dihydro-4H-1-thia-3b,6-diazabenzo[e]cyclopenta[a]azulene-2-carboxylic acid dihydrochloride]
NS5B 1a
  IC50: 10 to 100 nM
NS5B 1b
  IC50: < 10 nM

## CCOc1ccc2c(c1)N(C)CCn1c-2c(C2CCCCC2)c2sc(C(=O)NC3(C(=O)Nc4ccc(/C=C/C(=O)O)cc4)CCC3)cc21 [Example 45, (E)-3-[4-({1-[(11-cyclohexyl-8-ethoxy-6-methyl-5,6-dihydro-4H-1-thia-3b,6-diazabenzo[e]cyclopenta[a]azulene-2-carbonyl)amino]cyclobutanecarbonyl}amino)phenyl]acrylic acid]
NS5B 1a
  IC50: 10 to 100 nM
NS5B 1b
  IC50: 10 to 100 nM

## O=C(O)c1cc2c(s1)c(C1CCCCC1)c1n2CCN(CCN2CCCCC2)c2ccccc2-1 [Example 8, 11-cyclohexyl-6-[2-(piperidin-1-yl)ethyl]-5,6-dihydro-4H-1-thia-3b,6-diazabenzo[e]cyclopenta[a]azulene-2-carboxylic acid dihydrochloride]
NS5B 1a
  IC50: 10 to 100 nM
NS5B 1b
  IC50: 10 to 100 nM

## COc1ccc2c(c1)OCCn1c-2c(C2CCCCC2)c2sc(C(=O)NC3(C(=O)Nc4cccc(/C=C/C(=O)O)c4)CCC3)cc21 [Example 40, (E)-3-[3-({1-[(11-cyclohexyl-8-methoxy-4,5-dihydro-6-oxa-1-thia-3b-azabenzo[e]cyclopenta[a]azulene-2-carbonyl)amino]cyclobutanecarbonyl}amino)phenyl]acrylic acid]
NS5B 1a
  IC50: 10 to 100 nM
NS5B 1b
  IC50: 10 to 100 nM

## COC(=O)N1CCCC(Oc2ccc3c(c2)OCCn2c-3c(C3CCCCC3)c3sc(C(=O)O)cc32)C1 (centres unmarked) [Example 17, 11-cyclohexyl-8-(1-methoxycarbonylpiperidin-3-yloxy)-4,5-dihydro-6-oxa-1-thia-3b-azabenzo[e]cyclopenta[a]azulene-2-carboxylic acid]
NS5B 1a
  IC50: 10 to 100 nM
NS5B 1b
  IC50: 10 to 100 nM

## O=C(O)c1cc2c(s1)c(C1CCCCC1)c1n2CCOc2ccccc2-1 [Example 15, 11-cyclohexyl-4,5-dihydro-6-oxa-1-thia-3b-azabenzo[e]cyclopenta[a]azulene-2-carboxylic acid]
NS5B 1a
  IC50: 100 to 1000 nM
NS5B 1b
  IC50: 10 to 100 nM

## O=C(O)c1cc2c(s1)c(C1CCCCC1)c1n2CCN(CCN2CCCCC2)c2cc(Cl)ccc2-1 [Example 20, 8-chloro-11-cyclohexyl-6-[2-(piperidin-1-yl)ethyl]-5,6-dihydro-4H-1-thia-3b,6-diazabenzo[e]cyclopenta[a]azulene-2-carboxylic acid dihydrochloride]
NS5B 1a
  IC50: 10 to 100 nM
NS5B 1b
  IC50: 10 to 100 nM

## CC1CCCN(CCN2CCn3c(c(C4CCCCC4)c4sc(C(=O)O)cc43)-c3ccc(Cl)cc32)C1 (centres unmarked) [Example 30, 8-chloro-11-cyclohexyl-6-[2-(3-methylpiperidin-1-yl)ethyl]-5,6-dihydro-4H-1-thia-3b,6-diazabenzo[e]cyclopenta[a]azulene-2-carboxylic acid dihydrochloride]
NS5B 1a
  IC50: 10 to 100 nM
NS5B 1b
  IC50: < 10 nM

## O=C(O)c1cc2c(s1)c(C1CCCCC1)c1n2CCN(CCN2CCCCCCC2)c2ccccc2-1 [Example 21, 6-[2-(azocan-1-yl)ethyl]-11-cyclohexyl-5,6-dihydro-4H-1-thia-3b,6-diazabenzo[e]cyclopenta[a]azulene-2-carboxylic acid dihydrochloride]
NS5B 1a
  IC50: 10 to 100 nM
NS5B 1b
  IC50: < 10 nM

## CCN1CCN(C(=O)CN2CCn3c(c(C4CCCCC4)c4sc(C(=O)O)cc43)-c3ccc(Cl)cc32)CC1 [Example 36, 8-chloro-11-cyclohexyl-6-[2-(4-ethylpiperazin-1-yl)-2-oxoethyl]-5,6-dihydro-4H-1-thia-3b,6-diazabenzo[e]cyclopenta[a]azulene-2-carboxylic acid dihydrochloride]
NS5B 1a
  IC50: 10 to 100 nM
NS5B 1b
  IC50: 10 to 100 nM

## CCOc1ccc2c(c1)OCCn1c-2c(C2CCCCC2)c2sc(C(=O)NC3(C(=O)Nc4ccc(/C=C/C(=O)O)cc4)CCC3)cc21 [Example 43, (E)-3-[4-({1-[(11-cyclohexyl-8-ethoxy-4,5-dihydro-6-oxa-1-thia-3b-azabenzo[e]cyclopenta[a]azulene-2-carbonyl)amino]cyclobutanecarbonyl}amino)phenyl]acrylic acid]
NS5B 1a
  IC50: 10 to 100 nM
NS5B 1b
  IC50: 10 to 100 nM

## Cc1ccc2c(c1)N(C)CCn1c-2c(C2CCCCC2)c2sc(C(=O)NC3(C(=O)Nc4ccc(/C=C/C(=O)O)cc4)CCC3)cc21 [Example 38, (E)-3-[4-({1-[(11-cyclohexyl-6,8-dimethyl-5,6-dihydro-4H-1-thia-3b,6-diazabenzo[e]cyclopenta[a]azulene-2-carbonyl)amino]cyclobutanecarbonyl)amino)phenyl]acrylic acid]
NS5B 1a
  IC50: 10 to 100 nM
NS5B 1b
  IC50: 10 to 100 nM

## O=C(O)c1cc2c(s1)c(C1CCCCC1)c1n2CCOc2c-1cccc2N(CCN1CCOCC1)CCN1CCOCC1 [Example 46, 7-{bis[2-(morpholin-4-yl)ethyl]amino}-1l-cyclohexyl-4,5-dihydro-6-oxa-1-thia-3b-azabenzo[e]cyclopenta[a]azulene-2-carboxylic acid trihydrochloride]
NS5B 1a
  IC50: 10 to 100 nM
NS5B 1b
  IC50: < 10 nM

## CN1CCn2c(c(C3CCCCC3)c3sc(C(=O)NC4(C(=O)Nc5ccc(/C=C/C(=O)O)cc5)CCC4)cc32)-c2ccc(Cl)cc21 [Example 39, (E)-3-[4-({1-[(8-chloro-11-cyclohexyl-6-methyl-5,6-dihydro-4H-1-thia-3b,6-diazabenzo[e]cyclopenta[a]azulene-2-carbonyl)amino]cyclobutanecarbonyl}amino)phenyl]acrylic acid]
NS5B 1a
  IC50: 10 to 100 nM
NS5B 1b
  IC50: 10 to 100 nM

Source: patent US7659263B2, “Thienopyrrole compound and use thereof as HCV polymerase inhibitor” (Japan Tobacco Inc., priority 2004, dated 2010)
